# Results taken from patent US6849599B2, “Combination drug therapy” (priority 2000, dated 2005).
# Key:
# HT29 cells = test: Tumor growth in nude mice bearing xenografts of human colon tumor cell line HT29; format: in vivo; conditions: for Treated tumor size/Control tumor size (T/C): p<0.05
# Protocol: The antineoplastic activity of TSP plus CPT-11 was evaluated in an art-recognized model for cancer, nude mice bearing xenografts of the human colon tumor cell line HT29.
# [1] = Toxicity and mortality in the treated HT29 xenograft nude mice; format: in vivo
# Protocol: For in vivo studies, nude mice were inoculated subcutaneously in the left axillary region with 5×10^6 HT29 cells. When tumors were palpable (approximately 50 mg), mice were divided into groups (n=15-22) and treated as follows: (i) no treatment; (ii) TSP alone (5-40 mg/kg intraperitoneally) (iii) CPT-11 alone (100-300 mg/kg intraperitoneally); or (iv) TSP (20 mg/kg)+CPT-11 (150 mg/kg). TSP was injected daily while CPT-11 was administered on days 0, 7, 14, and 21. Mice were weighed and tumors measured twice weekly. […] Treated tumor size/Control tumor size (T/C) equaled 0.64 or 0.57, respectively. […] When TSP was combined with CPT-11, a highly significant inhibition of tumor growth was observed compared to control (T/C=0.1, with p=0.00002) and compared to CPT-11 alone (p=0.0008).
Molecule,"Treated tumor size/Control tumor size (T/C) (HT29 cells; TSP alone 10 mg/kg intraperitoneally daily, day 28)","Treated tumor size/Control tumor size (T/C) (HT29 cells; TSP alone 20 mg/kg intraperitoneally daily, day 28)","Inhibition of tumor growth, other doses (HT29 cells; TSP alone, other doses of 5-40 mg/kg intraperitoneally daily, compared with 10 or 20 mg/kg)","average T/C (HT29 cells; CPT-11 alone, all doses (100-300 mg/kg intraperitoneally, days 0, 7, 14, 21), day 28, p<0.001)",Toxicity and mortality ([1]; CPT-11 alone at 250 mg/kg intraperitoneally),Toxicity and mortality ([1]; CPT-11 alone at 300 mg/kg intraperitoneally)
Thrombospondin-1 [TSP],0.64,0.57,less effective,–,–,–
"CCc1c2c(nc3ccc(OC(=O)N4CCC(N5CCCCC5)CC4)cc13)-c1cc3c(c(=O)n1C2)COC(=O)[C@]3(O)CC [CPT-11, 7-ethyl-10-[4-(1-piperidino)-1-piperidino]-carbonloxycamptothecin]",–,–,–,0.3,induced significant toxicity and mortality,induced significant toxicity and mortality
